Laboratory results reported in patent publication US20160345855A1, “METHODS OF TREATING BRAIN DISORDERS OR IDENTIFYING BIOMARKERS RELATED THERETO” (NORTHWESTERN UNIVERSITY, priority 2013, published 2016).
“Also recorded” adds a separate entry of the source. Peptide text beside a SMILES is read from it.

Columns and labels:
NMDAR [1] = conditions: cited from earlier work; for side effects: human clinical studies; for Hamilton Depression Rating Score: patients suffering with refractory depression
healthy young adults [2] = assay: fMRI (BOLD) during item category association task, Example 1; format: in vivo, humans; conditions: IV-injection of 5 mg
Description: GLYX-13 was used to investigate whether this compound changed functional activation in hippocampal and related learning regions healthy young adults.
Twenty-four healthy individuals underwent functional magnetic resonance imaging (fMRI) after randomization to IV-injection of 5 mg of GLYX-13 (n=12) or placebo (n=12). Groups were matched on demographic factors, estimated IQ, and dose volume. While undergoing scanning, subjects performed an item category association task in which they learned over repeated cycles which of two categories a series of numbers were assigned. Change in blood-oxygen level dependent (BOLD) activity was measured during correctly performed trials, and differences in activation between groups were compared across learning cycles.

healthy young adults [3] = assay: fMRI (BOLD) during item category association task, Example 2 (randomized, single-blind, parallel group); format: in vivo, humans; conditions: single IV 5 mg/kg
Source text: We investigated whether a single IV administration of GLYX-13 compared to placebo changed functional activation among healthy young adults performing a learning and memory task while undergoing fMRI.
The inclusion criteria for adult subjects participating in the study were as follows (i) 18-40 years of age; (ii) estimated IQ within what is considered to be the normal range (80-120); and (iii) no personal medical, neurologic, or psychiatric history, or reported history of psychiatric illness among first degree relatives.
After initial (Visit 1), patients were randomized to either single IV administration of GLYX-13 (5 mg/kg) or placebo on subsequent visit (Visit 2). fMRI studies started within 20 minutes post-infusion. Subjects returned approximately one week after Visit 2 to complete behavioral tasks in scanner and assess any adverse effects.
Item Category Association Task (See, e.g., Onur O A, Schlaepfer T E, Kukolja J, Bauer A, Jeung H, Patin A, Otte D-M, Shah N J, Maier W, Kendrick K M, Fink G R, Hurleman R (2010).
The N-methyl-D-aspartate receptor co-agonist D-Cycloserine facilitates declarative learning and hippocampal activity in humans. Biol. Psychiatry, 67, 1205). Subjects were asked to learn arbitrary group membership (A or B) of 3-digit numbers. Visual feedback was provided immediately following choice (button press) to indicate correct item category association. There were eight category memberships to be learned, which were presented over eight cycles (i.e., 7 repetitions) for a total of 64 trials per run; three sets of learning runs (each with different 3-digit number sets. See FIG. 3.
3T TIM Trio system (Siemens Medical Systems) with 32 channel coil. […]

NMDAR [4] = conditions: in vivo; cited from earlier work

| Structure (SMILES) | side effects (NMDAR [1]) | Hamilton Depression Rating Score (NMDAR [1]) | regions in which Placebo demonstrated greater activation compared to GLYX-13 (healthy young adults [2]) | BOLD activation over learning cycles compared to Placebo (healthy young adults [2]; n=12 per group, correctly performed trials, hippocampus, parahippocampal gyrus, amygdala, superior temporal, middle frontal, inferior frontal gyri) | task accuracy over successive cycles (healthy young adults [2]; both groups (GLYX-13 and placebo)) | number of identified regions with significant group by cycle interaction effects on extracted mean % signal change (healthy young adults [3]; FIGS. 7A-7F) | behavioral task performance (learning effect across cycle) (healthy young adults [3]; compared with Placebo, FIG. 5) | BOLD activation / extracted mean % signal change vs. Placebo (healthy young adults [3]; correct trials, FIGS. 7A-7F, 5 mg/kg) | antidepressant activity (NMDAR [4]) | nootropic, neuroprotective, antinociceptive and cognitive activity (NMDAR [4]) | psychotomimetic side effects (NMDAR [4]) |
| --- | --- | --- | --- | --- | --- | --- | --- | --- | --- | --- | --- |
| C[C@@H]([C@@H](O)c1ccc(O)cc1)N1CCC(O)(c2ccccc2)CC1 [CPC-101.606] | severe | significant reductions | – | – | – | – | – | – | – | – | – |
| C[C@@H](O)[C@H](N)C(=O)N1CCC[C@H]1C(=O)N1CCC[C@H]1C(=O)N[C@H](C(N)=O)[C@@H](C)O [GLYX-13, L-threonyl-L-prolyl-L-prolyl-L-threonine amide] (H-TPPT-NH2) | – | – | no regions | enhanced activation over learning cycles in several learning and memory regions | increased task accuracy over successive cycles | six | robust and comparable learning effect across cycle | enhanced activation; also recorded: enhanced BOLD signal change | rapid-acting, robust, and sustained antidepressant activity | exhibits nootropic, neuroprotective and antinociceptive activity, and enhances learning, memory and cognition in vivo | lack the pyschotomimetic side effects |
| CNC1(c2ccccc2Cl)CCCCC1=O (stereo not shown) [ketamine] | severe | significant reductions | – | – | – | – | – | – | – | – | – |
